Measurements as given in US20220054465A1, “(PYRIDIN-2-YL)AMINE DERIVATIVES AS TGF-BETA R1 (ALK5) INHIBITORS FOR THE TREATMENT OF CANCER” (Nexys Therapeutics, Inc., priority 2018, published 2022).

Key:
[1] = Tissue exposure (liver and heart) in Balb/c mouse after PO dosing, general PK protocol; type: in vivo; conditions: PO (intragastric) 10 mg/Kg, liver and heart tissue 0.5-24 h, LC-MS/MS
Method: Comparing AUCliver/AUCheart ratio of selected Examples with clinic compounds Galunisertib and LY3200882. Tissue exposure was measured in Balb/c mouse with PO dosing at 10 mpk. […] See Stauber, et al., J. Clin. Pract., 2014, 4(3), 196.
The Balb/c mice were fasted overnight with free access to drinking water prior to treatment. Compounds were formulated in 0.5% CMC/0.5% Tween 80 with or without 1 eq. of NaOH, and administrated intragastrically at 10 mg/Kg. The liver and heart tissues of mice were collected at time points 0.5, 1, 3, 5, 7, 24 h (2 mice per time point) post dose by first sacrificing the animal by C02 inhalation. After flushing with ice saline and removal of excess water on its surface, the liver and heart tissues were weighed and homogenized in 1:5 volumes (w/v) of water with 20% methanol. Tissue samples were kept at −40˜−20° C. prior to analysis. Concentrations of compounds in the liver and hearts were determined using an established liquid chromatography-tandem mass spectrometry (LC-MS/MS) method. Tissue concentration-time data were processed by linear regression analysis. All pharmacokinetic parameters were calculated using non-compartment model of Pharsight Phoenix 8.0.

HEK-Blue TGFβ cell = assay: HEK-Blue TGFβ cellular reporter gene assay (SEAP readout); type: cell-based; conditions: HEK-Blue TGFβ cells stimulated with TGF-β, 22-23 h incubation, SEAP read at 630 nm
Method: HEK-Blue TGFβ Cellular Reporter Gene Assay:
HEK-Blue TGFβ cell was purchased from Invivogen. Cell suspension of 2.5×10^5 cells/ml was prepared using Test Medium (DMEM containing 0.5% v/v heat-inactivated FBS). TGF-β working solution (6 ng/ml) was obtained through diluting TGF-β stock solution (10 μg/ml) by Test Medium before use. Eight different concentrations of all compounds were obtained by 3× gradient dilution method using TGF-β working solution. Add 100 μl of Test Medium (Vehicle) or test article or TGF-β working solution per well of a flat-bottom 96-well plate. Add 100 μl of HEK-Blue TGF-β cell suspension per well. Incubate the plate at 37° C. in a CO2 incubator for 22-23 h. Add 150 μl of resuspended QUANTI-Blue per well of a new flat-bottom 96-well plate. Add 30 μl of induced HEK-Blue TGF-β cells supernatant. Avoid pipetting at the bottom of wells. Incubate the plate at 37° C. incubator for 30-40 min. Determine secreted embryonic alkaline phosphatase (SEAP) levels using a spectrophotometer at 630 nm.
The inhibition was calculated using the equation: […]

## CC(C)(C(=O)O)c1cccc(Nc2cc(Oc3cn(C4CC4)nc3C3CCOCC3)ccn2)c1 [Example 74]
[1]
  AUCliver/AUCheart: 266
HEK-Blue TGFβ cell
  IC50: 230 nM

## Cc1cc(Oc2ccnc(Nc3cccc(CCc4nn[nH]n4)c3)c2)c(-c2ccccn2)nc1C [Example 12, N-(3-(2-(2H-tetrazol-5-yl)ethyl)phenyl)-4-((5,6-dimethyl-[2,2′-bipyridin]-3-yl)oxy)pyridin-2-amine]
[1]
  AUCliver/AUCheart: 60.9
HEK-Blue TGFβ cell
  IC50: 130 nM

## Cc1ccc(Oc2ccnc(Nc3cccc(CCc4nn[nH]n4)c3)c2)c(-c2ccccc2)n1 [Example 52, N-(3-(2-(2H-tetrazol-5-yl)ethyl)phenyl)-4-((6-methyl-2-phenylpyridin-3-yl)oxy)pyridin-2-amine]
[1]
  AUCliver/AUCheart: 70.6
HEK-Blue TGFβ cell
  IC50: 37 nM

## Cc1ccc(Oc2ccnc(Nc3cccc(C(C)(C)C(=O)O)c3)c2)c(-c2ccccc2)n1 [Example 70, 2-methyl-2-(3-((4-((6-methyl-2-phenylpyridin-3-yl)oxy)pyridin-2-yl)amino)phenyl)propanoic acid]
[1]
  AUCliver/AUCheart: 67.7
HEK-Blue TGFβ cell
  IC50: 7 nM

## Cc1ccc(Oc2ccnc(Nc3cccc(C(C)(C)C(=O)O)c3)c2)c(C2CCOCC2)n1 [Example 108]
HEK-Blue TGFβ cell
  IC50: 900 nM

## Cc1cc(CC(=O)O)cc(Nc2cc(Oc3cn(C4CC4)nc3C3CCOCC3)ccn2)c1 [Example 164]
HEK-Blue TGFβ cell
  IC50: 1110 nM

## Cc1cc(Oc2ccnc(Nc3ccc(Cl)c(CCC(=O)O)c3)c2)c(-c2ccccn2)nc1C [Example 5]
HEK-Blue TGFβ cell
  IC50: 150 nM

## Cc1cc(Oc2ccnc(Nc3cc(Cl)cc(CCc4nn[nH]n4)c3)c2)c(-c2ccccn2)nc1C [Example 180]
HEK-Blue TGFβ cell
  IC50: 79 nM

## CCc1nc(C)c(Oc2ccnc(Nc3cccc(C(C)(C)C(=O)O)c3)c2)cc1C [Example 82]
HEK-Blue TGFβ cell
  IC50: 18 nM

## O=C(O)c1cccc(Nc2cc(Oc3cn(C4CC4)nc3C3CCOCC3)ccn2)c1 [Example 111]
HEK-Blue TGFβ cell
  IC50: 6200 nM

## Cc1ccc(Nc2cc(Oc3cn(C4CC4)nc3C3CCOCC3)ccn2)cc1CC(=O)O [Example 115]
HEK-Blue TGFβ cell
  IC50: 1100 nM

## CCc1nc(C)c(Oc2ccnc(Nc3cc(C)cc(C(C)(C)C(=O)O)c3)c2)cc1Cl [Example 153]
HEK-Blue TGFβ cell
  IC50: 70 nM

## O=C(O)CCc1cccc(Nc2cc(Oc3cn(C4CC4)nc3C3CCOCC3)ccn2)c1 [Example 68, 3-(3-((4-((1-cyclopropyl-3-(tetrahydro-2H-pyran-4-yl)-1H-pyrazol-4-yl)oxy)pyridin-2-yl)amino)phenyl)propanoic acid]
HEK-Blue TGFβ cell
  IC50: 740 nM

## Cc1cc(Oc2ccnc(Nc3cc(F)cc(CCc4nn[nH]n4)c3)c2)c(-c2ccccn2)nc1C [Example 179]
HEK-Blue TGFβ cell
  IC50: 170 nM

## Cc1ccc(Oc2ccnc(Nc3cc(CCC(=O)O)ccn3)c2)c(C)n1 [Example 42]
HEK-Blue TGFβ cell
  IC50: 140 nM

## Cc1ccc(Oc2ccnc(Nc3cccc(C(C)(C)C(=O)O)c3)c2)c(-c2cccc(F)c2)n1 [Example 90]
HEK-Blue TGFβ cell
  IC50: 24 nM

## Cc1ccc(Oc2ccnc(Nc3cccc(CCC(=O)O)n3)c2)c(C)n1 [Example 37]
HEK-Blue TGFβ cell
  IC50: 200 nM

## CCc1nc(C)c(Oc2ccnc(Nc3cc(C)cc(CC(C)(C)C(=O)O)c3)c2)cc1Cl [Example 156]
HEK-Blue TGFβ cell
  IC50: 23 nM

## COc1ccccc1-c1nc(C)ccc1Oc1ccnc(Nc2cccc(C(C)(C)C(=O)O)c2)c1 [Example 86]
HEK-Blue TGFβ cell
  IC50: 240 nM

## CCc1ccc(Oc2ccnc(Nc3cccc(CC(C)(C)C(=O)O)c3)c2)c(C)n1 [Example 133, 3-(3-((4-((6-ethyl-2-methylpyridin-3-yl)oxy)pyridin-2-yl)amino)phenyl)-2,2-dimethylpropanoic acid]
HEK-Blue TGFβ cell
  IC50: 28 nM

## O=C(O)C(F)(F)c1cccc(Nc2cc(Oc3cn(C4CC4)nc3-c3ccccc3)ccn2)c1 [Example 132, 2-(3-((4-((1-cyclopropyl-3-phenyl-1H-pyrazol-4-yl)oxy)pyridin-2-yl)amino)phenyl)-2,2-difluoroacetic acid]
HEK-Blue TGFβ cell
  IC50: > 10000 nM

## Cc1cc(Oc2ccnc(Nc3cc(CCc4nnn[nH]4)ccn3)c2)c(-c2ccccn2)nc1C [Example 24]
HEK-Blue TGFβ cell
  IC50: 4530 nM

## Cc1ccc(Oc2ccnc(Nc3cccc(C(C)(C)C(=O)O)c3)c2)c(-c2ccccc2Cl)n1 [Example 80]
HEK-Blue TGFβ cell
  IC50: 110 nM

## Cc1ccc(Oc2ccnc(Nc3cccc(CCc4nn[nH]n4)n3)c2)c(C)n1 [Example 47]
HEK-Blue TGFβ cell
  IC50: 310 nM

## Cc1ccc(Oc2ccnc(Nc3cccc(CCc4nn[nH]n4)c3)c2)c(-c2cnn(C)c2)n1 [Example 62]
HEK-Blue TGFβ cell
  IC50: 2110 nM

## CC(C)(C(=O)O)c1cccc(Nc2cc(Oc3cn(C4CC4)nc3C3CCCC3)ccn2)c1 [Example 128]
HEK-Blue TGFβ cell
  IC50: 22 nM

## Cc1cc(CC(C)(C)C(=O)O)cc(Nc2cc(Oc3cn(C4CC4)nc3C3CCOCC3)ccn2)c1 [Example 162]
HEK-Blue TGFβ cell
  IC50: 120 nM

## Cc1ccc(Oc2ccnc(Nc3cccc(CCc4nn[nH]n4)c3)c2)c(-c2ccncc2)n1 [Example 54]
HEK-Blue TGFβ cell
  IC50: 6390 nM

## c1cc(Cc2nn[nH]n2)cc(Nc2cc(Oc3cn(C4CC4)nc3C3CCOCC3)ccn2)c1 [Example 193]
HEK-Blue TGFβ cell
  IC50: > 10000 nM

## CC(C)(C(=O)O)c1cccc(Nc2cc(Oc3cn(C4CC4)nc3-c3ccccn3)ccn2)c1 [Example 130]
HEK-Blue TGFβ cell
  IC50: > 10000 nM

## Cc1nc(-c2ccccc2)ccc1Oc1ccnc(Nc2cccc(C(C)(C)c3nn[nH]n3)c2)c1 [Example 61]
HEK-Blue TGFβ cell
  IC50: 190 nM

## CCc1nc(C)c(Oc2ccnc(Nc3cccc(CCC(=O)O)c3)c2)cc1Cl [Example 154]
HEK-Blue TGFβ cell
  IC50: 16 nM

## Cc1ccc(Oc2ccnc(Nc3cccc(CCc4nn[nH]n4)c3)c2)c(-c2ccccn2)n1 [Example 55]
HEK-Blue TGFβ cell
  IC50: 200 nM

## Cc1cc(CCc2nn[nH]n2)cc(Nc2cc(Oc3cc(Cl)c(C)nc3C)ccn2)c1 [Example 189]
HEK-Blue TGFβ cell
  IC50: 24 nM

## Cc1cc(Oc2ccnc(Nc3ccc(CCC(=O)O)cc3)c2)c(-c2ccccn2)nc1C [Example 2]
HEK-Blue TGFβ cell
  IC50: 230 nM

## Cc1cc(Oc2ccnc(Nc3cccc(C(C)(C)C(=O)O)c3)c2)c(-c2ccccn2)nc1C [Example 71, 2-(3-((4-((5,6-dimethyl-[2,2′-bipyridin]-3-yl)oxy)pyridin-2-yl)amino)phenyl)-2-methylpropanoic acid]
HEK-Blue TGFβ cell
  IC50: 140 nM

## Cc1ccc(Oc2ccnc(Nc3cccc(C(C)(C)C(=O)O)c3)c2)c(C)n1 [Example 73]
HEK-Blue TGFβ cell
  IC50: 140 nM

## CC(C)c1ccc(Oc2ccnc(Nc3cccc(C(C)(C)C(=O)O)c3)c2)c(-c2ccccc2)n1 [Example 107]
HEK-Blue TGFβ cell
  IC50: 180 nM

## Cc1cc(Oc2ccnc(Nc3cncc(CCc4nnn[nH]4)c3)c2)c(-c2ccccn2)nc1C [Example 23]
HEK-Blue TGFβ cell
  IC50: > 10000 nM

## CC(C)(C(=O)O)c1cccc(Nc2cc(Oc3cn(C4CC4)nc3C3CCCCC3)ccn2)c1 [Example 127]
HEK-Blue TGFβ cell
  IC50: 12 nM

## Cc1cc(Oc2ccnc(Nc3cccc(C(C)(C)C(=O)O)c3)c2)c(-c2ccccc2)nc1C [Example 98]
HEK-Blue TGFβ cell
  IC50: 51 nM

## CCc1nc(-c2ccccn2)c(Oc2ccnc(Nc3cccc(C(C)(C)C(=O)O)c3)c2)cc1C [Example 85]
HEK-Blue TGFβ cell
  IC50: 44 nM

## Cc1cc(CCc2nnn[nH]2)cc(Nc2cc(Oc3cc(C)c(C)nc3-c3ccccn3)ccn2)c1 [Example 29]
HEK-Blue TGFβ cell
  IC50: 38 nM

## COc1ccc(-c2nc(C)ccc2Oc2ccnc(Nc3cccc(C(C)(C)C(=O)O)c3)c2)cc1 [Example 88]
HEK-Blue TGFβ cell
  IC50: 39 nM

## CC(C)(C(=O)CO)c1cccc(Nc2cc(Oc3cn(C4CC4)nc3C3CCOCC3)ccn2)c1 [Example 159]
HEK-Blue TGFβ cell
  IC50: 140 nM

## Cc1ccc(Oc2ccnc(Nc3cccc(CCC(=O)O)c3F)c2)c(C)n1 [Example 40]
HEK-Blue TGFβ cell
  IC50: 220 nM

## CCc1ccc(Oc2ccnc(Nc3cccc(CCC(=O)O)c3)c2)c(-c2ccccn2)n1 [Example 138]
HEK-Blue TGFβ cell
  IC50: 49 nM

## CCc1ccc(Oc2ccnc(Nc3cc(C)cc(C(C)(C)C(=O)O)c3)c2)c(C)n1 [Example 144]
HEK-Blue TGFβ cell
  IC50: 75 nM

## CCc1nc(C)c(Oc2ccnc(Nc3cccc(CC(C)(C)C(=O)O)c3)c2)cc1C [Example 151]
HEK-Blue TGFβ cell
  IC50: 30 nM

## Cc1cc(Cc2nn[nH]n2)cc(Nc2cc(Oc3cn(C4CCC4)nc3-c3ccccc3)ccn2)c1 [Example 202]
HEK-Blue TGFβ cell
  IC50: 120 nM

## Cc1ccc(Oc2ccnc(Nc3ccc(F)c(CCc4nn[nH]n4)c3)c2)c(C)n1 [Example 51]
HEK-Blue TGFβ cell
  IC50: 270 nM

## Cc1nc2ccccc2cc1Oc1ccnc(Nc2cccc(CCc3nn[nH]n3)c2)c1 [Example 59]
HEK-Blue TGFβ cell
  IC50: 450 nM

## CCc1nc(C)c(Oc2ccnc(Nc3cccc(C(C)(C)C(=O)O)c3)c2)cc1Cl [Example 83]
HEK-Blue TGFβ cell
  IC50: 35 nM

## CC(C)(C(=O)O)c1cccc(Nc2cc(Oc3cn(C4CCC4)nc3-c3ccccc3)ccn2)c1 [Example 125]
HEK-Blue TGFβ cell
  IC50: 66 nM

## Cc1cc(Oc2ccnc(Nc3cccc(C(C)(C)CC(=O)O)c3)c2)c(-c2ccccn2)nc1C [Example 109]
HEK-Blue TGFβ cell
  IC50: 51 nM

## COc1ccc(Nc2cc(Oc3ccc(C)nc3-c3ccccn3)ccn2)cc1CCc1nn[nH]n1 [Example 184]
HEK-Blue TGFβ cell
  IC50: 330 nM

## c1ccc(-c2nn(C3CCC3)cc2Oc2ccnc(Nc3cccc(CCc4nn[nH]n4)c3)c2)cc1 [Example 200]
HEK-Blue TGFβ cell
  IC50: 86 nM
